According to patent publication US10112899B2 (ViiV HEALTHCARE UK LIMITED, priority 2014, dated 2018):

Tested on: HIV in the HTLV-1 transformed cell line MT-4
Assay: organism not typed
Assay type: cell-based
Conditions: MT4, 96 h, MT-4 cells; luciferase/cell titer glo readout after 96 hours; 10 point dose response

Compound	IC50 [nM]
Cc1ccc(-c2c(C)c3c(c(C)c2[C@H](OC(C)(C)C)C(=O)O)CN(C(=O)C2CCCC2)C3)cc1 [Example 112, (S)-2-(tert-butoxy)-2-(2-(cyclopentanecarbonyl)-4,7-dimethyl-6-(p-tolyl)isoindolin-5-yl)acetic acid]	29
Cc1ccc(-c2c(C)c3c(c(C)c2[C@H](OC(C)(C)C)C(=O)O)CN(C(=O)C2CCC(F)(F)C2)C3)cc1 (stereo partly drawn) [Example 113, (2S)-2-(tert-butoxy)-2-(2-(3,3-difluorocyclopentanecarbonyl)-4,7-dimethyl-6-(p-tolyl)isoindolin-5-yl)acetic acid]	10
COc1cccc(C(=O)N2Cc3c(C)c(-c4ccc(C)cc4)c([C@H](OC(C)(C)C)C(=O)O)c(C)c3C2)c1 [Example 114, (S)-2-(tert-butoxy)-2-(2-(3-methoxybenzoyl)-4,7-dimethyl-6-(p-tolyl)isoindolin-5-yl)acetic acid]	5
Cc1ccc(-c2c(C)c3c(c(C)c2[C@H](OC(C)(C)C)C(=O)O)CN(C(=O)c2ccc(C)c(F)c2)C3)cc1 [Example 115, (S)-2-(tert-butoxy)-2-(2-(3-fluoro-4-methylbenzoyl)-4,7-dimethyl-6-(p-tolyl)isoindolin-5-yl)acetic acid]	6
COC1CCC(C(=O)N2Cc3c(C)c(-c4ccc(C)cc4)c([C@H](OC(C)(C)C)C(=O)O)c(C)c3C2)CC1 (stereo partly drawn) [Example 116, (S)-2-(tert-butoxy)-2-(2-(4-methoxycyclohexanecarbonyl)-4,7-dimethyl-6-(p-tolyl)isoindolin-5-yl)acetic acid]	31
Cc1ccc(-c2c(C)c3c(c(C)c2[C@H](OC(C)(C)C)C(=O)O)CN(C(=O)CC2CCCCC2)C3)cc1 [Example 117, (S)-2-(tert-butoxy)-2-(2-(2-cyclohexylacetyl)-4,7-dimethyl-6-(p-tolyl)isoindolin-5-yl)acetic acid]	17
Cc1ccc(-c2c(C)c3c(c(C)c2[C@H](OC(C)(C)C)C(=O)O)CN(C(=O)C2CC4(CCC4)C2)C3)cc1 [Example 118, (S)-2-(tert-butoxy)-2-(4,7-dimethyl-2-(spiro[3.3]heptane-2-carbonyl)-6-(p-tolyl)isoindolin-5-yl)acetic acid]	14
Cc1ccc(-c2c(C)c3c(c(C)c2[C@H](OC(C)(C)C)C(=O)O)CN(C(=O)c2cc(F)cc(F)c2)C3)cc1 [Example 119, (S)-2-(tert-butoxy)-2-(2-(3,5-difluorobenzoyl)-4,7-dimethyl-6-(p-tolyl)isoindolin-5-yl)acetic acid]	3
Cc1ccc(-c2c(C)c3c(c(C)c2[C@H](OC(C)(C)C)C(=O)O)CN(C(=O)c2cccc(F)c2F)C3)cc1 [Example 120, (S)-2-(tert-butoxy)-2-(2-(2,3-difluorobenzoyl)-4,7-dimethyl-6-(p-tolyl)isoindolin-5-yl)acetic acid]	3
Cc1ccc(-c2c(C)c3c(c(C)c2[C@H](OC(C)(C)C)C(=O)O)CN(C(=O)c2cc(F)ccc2C)C3)cc1 [Example 121, (S)-2-(tert-butoxy)-2-(2-(5-fluoro-2-methylbenzoyl)-4,7-dimethyl-6-(p-tolyl)isoindolin-5-yl)acetic acid]	4
COc1cc(F)cc(C(=O)N2Cc3c(C)c(-c4ccc(C)cc4)c([C@H](OC(C)(C)C)C(=O)O)c(C)c3C2)c1 [Example 122, (S)-2-(tert-butoxy)-2-(2-(3-fluoro-5-methoxybenzoyl)-4,7-dimethyl-6-(p-tolyl)isoindolin-5-yl)acetic acid]	3
Cc1ccc(-c2c(C)c3c(c(C)c2[C@H](OC(C)(C)C)C(=O)O)CN(C(=O)c2cc(C)cc(F)c2)C3)cc1 [Example 123, (S)-2-(tert-butoxy)-2-(2-(3-fluoro-5-methylbenzoyl)-4,7-dimethyl-6-(p-tolyl)isoindolin-5-yl)acetic acid]	4
Cc1ccc(-c2c(C)c3c(c(C)c2[C@H](OC(C)(C)C)C(=O)O)CNC3)cc1 [Example 124, (S)-2-(tert-butoxy)-2-(4,7-dimethyl-6-(p-tolyl)isoindolin-5-yl)acetic acid]	1090
Cc1ccc(-c2c(C)c3c(c(C)c2[C@H](OC(C)(C)C)C(=O)O)CN(Cc2cccc4c2OCCO4)C3)cc1 [Example 125, (S)-2-(tert-butoxy)-2-(2-((2,3-dihydrobenzo[b][1,4]dioxin-5-yl)methyl)-4,7-dimethyl-6-(p-tolyl)isoindolin-5-yl)acetic acid]	15
Cc1ccc(-c2c(C)c3c(c(C)c2[C@H](OC(C)(C)C)C(=O)O)CN(C(=O)OC(C)(C)C)C3)cc1 [Example 126, (S)-2-(tert-butoxy)-2-(2-(tert-butoxycarbonyl)-4,7-dimethyl-6-(p-tolyl)isoindolin-5-yl)acetic acid]	13
Cc1ccc(-c2c(C)c3c(c(C)c2[C@H](OC(C)(C)C)C(=O)O)CN(CC(=O)N2CCCCC2)C3)cc1 [Example 127, (S)-2-(tert-butoxy)-2-(4,7-dimethyl-2-(2-oxo-2-(piperidin-1-yl)ethyl)-6-(p-tolyl)isoindolin-5-yl)acetic acid]	318
Cc1ccc(-c2c(C)c3c(c(C)c2[C@H](OC(C)(C)C)C(=O)O)CN(C(=N)N2CCCCC2)C3)cc1 [Example 128, (S)-2-(tert-butoxy)-2-(2-(imino(piperidin-1-yl)methyl)-4,7-dimethyl-6-(p-tolyl)isoindolin-5-yl)acetic acid]	8540
Cc1ccc(-c2c(C)c3c(c(C)c2[C@H](OC(C)(C)C)C(=O)O)CN(C(=O)C(=O)N2CCCCC2)C3)cc1 [Example 129]	14
Cc1ccc(-c2c(C)c3c(c(C)c2[C@H](OC(C)(C)C)C(=O)O)CN(C(=O)C(=O)N2CCOC[C@H]2C)C3)cc1 [Example 130, (S)-2-(tert-butoxy)-2-(4,7-dimethyl-2-(2-((R)-3-methylmorpholino)-2-oxoacetyl)-6-(p-tolyl)isoindolin-5-yl)acetic acid]	41
Cc1ccc(-c2c(C)c3c(c(C)c2[C@H](OC(C)(C)C)C(=O)O)CN(C(=S)N2CCCCC2)C3)cc1 [Example 131, (S)-2-(tert-butoxy)-2-(4,7-dimethyl-2-(piperidine-1-carbonothioyl)-6-(p-tolyl)isoindolin-5-yl)acetic acid]	19
Cc1c2c(c(C)c([C@H](OC(C)(C)C)C(=O)O)c1-c1ccc(Cl)cc1)CN(C(=O)N1CCCCC1)C2 [Example 132, (S)-2-(tert-butoxy)-2-(6-(4-chlorophenyl)-4,7-dimethyl-2-(piperidine-1-carbonyl)isoindolin-5-yl)acetic acid]	21
Cc1c2c(c(C)c([C@H](OC(C)(C)C)C(=O)O)c1-c1ccc(Cl)cc1)CN(C(=O)C1CCCCC1)C2 [Example 134, (S)-2-(tert-butoxy)-2-(6-(4-chlorophenyl)-2-(cyclohexanecarbonyl)-4,7-dimethylisoindolin-5-yl)acetic acid]	6
Cc1c2c(c(C)c([C@H](OC(C)(C)C)C(=O)O)c1-c1ccc(Cl)cc1)CN(C(=O)CC(C)(C)C)C2 [Example 135, (S)-2-(tert-butoxy)-2-(6-(4-chlorophenyl)-2-(3,3-dimethylbutanol)-4,7-dimethylisoindolin-5-yl)acetic acid]	23
Cc1ccc(F)cc1C(=O)N1Cc2c(C)c(-c3cc(F)c4c(c3C)CCCO4)c([C@H](OC(C)(C)C)C(=O)O)c(C)c2C1 [Example 136, (S)-2-(tert-butoxy)-2-((R)-2-(5-fluoro-2-methylbenzoyl)-6-(8-fluoro-5-methylchroman-6-yl)-4,7-dimethylisoindolin-5-yl)acetic acid]	2
